Test results reported in ChEMBL document CHEMBL4742397, “Compositions and methods for regulating body weight and metabolic syndromes” (2018).
Calls of active or inactive are those of the source.

Legend:
3T3-L1 [1] = assay: Inhibition of lipid accumulation in mouse 3T3-L1 cells at 1 to 20 uM incubated for 6 days by Oil Red O staining based spectrometric assay; type: functional, cell-based; details: dose 1-20 µM, time 6.0 day
3T3-L1 [2] = assay: Inhibition of lipid accumulation in mouse 3T3-L1 cells at 1 to 20 uM incubated for 6 days by Oil Red O staining based spectrometric assay relative to control; type: functional; details: dose 1-20 µM, time 6 day
3T3-L1 [3] = assay: Inhibition of lipid accumulation in mouse 3T3-L1 cells at 10 to 20 uM incubated for 6 days by CARS microscopy; type: functional, cell-based; details: dose 10-20 µM, time 6.0 day
3T3-L1 [4] = assay: Inhibition of lipid synthesis related gene expression in mouse 3T3-L1 cells assessed as reduction in PPARgamma expression at 20 uM incubated for 6 days by real-time PCR analysis; type: functional, cell-based; details: time 6.0 day
3T3-L1 [5] = assay: Inhibition of lipid synthesis related gene expression in mouse 3T3-L1 cells assessed as reduction in SREBPlc expression at 20 uM incubated for 6 days by real-time PCR analysis; type: functional, cell-based; details: time 6.0 day
3T3-L1 [6] = assay: Inhibition of lipid synthesis related gene expression in mouse 3T3-L1 cells assessed as reduction in MGAT1 expression at 20 uM incubated for 6 days by real-time PCR analysis; type: functional, cell-based; details: time 6.0 day
3T3-L1 [7] = assay: Inhibition of lipid synthesis related gene expression in mouse 3T3-L1 cells assessed as reduction in DGAT2 expression at 20 uM incubated for 6 days by real-time PCR analysis; type: functional, cell-based; details: time 6.0 day
3T3-L1 [8] = assay: Inhibition of lipid synthesis related gene expression in mouse 3T3-L1 cells assessed as reduction in FAS expression at 20 uM incubated for 6 days by real-time PCR analysis; type: functional, cell-based; details: time 6.0 day
3T3-L1 [9] = assay: Inhibition of lipid synthesis related gene expression in mouse 3T3-L1 cells assessed as reduction in SCD1 expression at 20 uM incubated for 6 days by real-time PCR analysis; type: functional, cell-based; details: time 6.0 day
3T3-L1 [10] = assay: Increase in 125 kDa inactive precursor form of SREBPl protein in mouse 3T3-L1 cells at 20 uM incubated for 6 days by Western blot analysis; type: functional, cell-based; details: time 6.0 day
3T3-L1 [11] = assay: Inhibition of LD accumulation mouse 3T3-L1 cells using deuterium labeled glucose-d7 by SRS microscopy; type: functional, cell-based
3T3-L1 [12] = assay: Suppression of cholesterol levels in mouse 3T3-L1 cells; type: functional, cell-based
3T3-L1 [13] = assay: Inhibition of CE accumulation in mouse 3T3-L1 cells; type: functional, cell-based
3T3-L1 [14] = assay: Inhibition of cholesterol uptake related gene expression in mouse 3T3-L1 cells assessed as reduction in SR-B1 expression at 20 uM incubated for 6 days by real-time PCR analysis; type: functional, cell-based; details: time 6.0 day
3T3-L1 [15] = assay: Inhibition of cholesterol uptake related gene expression in mouse 3T3-L1 cells assessed as reduction in CD36 expression at 20 uM incubated for 6 days by real-time PCR analysis; type: functional, cell-based; details: time 6.0 day
[16] = target: T1, Sterol O-acyltransferase 1 (Mus musculus) (UniProt Q61263); assay: Inhibition of ACAT in mouse 3T3-L1 cells assessed as reduction in accumulation of fluorescence-labeled CE by 25-NBD cholesterol based assay; type: cell-based
T1 sequence (whole entry): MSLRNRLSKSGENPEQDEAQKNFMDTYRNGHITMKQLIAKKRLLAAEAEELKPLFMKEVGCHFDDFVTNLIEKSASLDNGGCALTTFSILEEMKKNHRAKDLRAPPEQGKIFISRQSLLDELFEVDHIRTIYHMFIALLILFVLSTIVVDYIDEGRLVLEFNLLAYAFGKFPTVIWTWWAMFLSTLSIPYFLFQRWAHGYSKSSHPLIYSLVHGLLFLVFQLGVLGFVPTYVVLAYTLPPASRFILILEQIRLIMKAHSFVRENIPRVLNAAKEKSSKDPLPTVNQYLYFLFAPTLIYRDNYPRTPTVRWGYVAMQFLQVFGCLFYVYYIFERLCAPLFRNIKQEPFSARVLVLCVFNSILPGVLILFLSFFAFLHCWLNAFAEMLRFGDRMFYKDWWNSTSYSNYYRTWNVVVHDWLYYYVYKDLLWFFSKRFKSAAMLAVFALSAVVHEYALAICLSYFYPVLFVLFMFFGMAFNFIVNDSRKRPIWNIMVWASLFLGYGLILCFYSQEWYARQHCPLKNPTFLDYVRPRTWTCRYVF

Mus musculus [17] = assay: Anti-diabetic activity in high fat diet-fed C57BL/6J mouse model of obesity and diabetes assessed as reduction in total body weight gain at 20 mg/kg, ip dosed daily for 2 weeks; type: functional; design: scale not given: the % may be the effect or the level left
Mus musculus [18] = assay: Anti-diabetic activity in high fat diet-fed C57BL/6J mouse model of obesity and diabetes assessed as reduction of whole body fat mass at 20 mg/kg, ip dosed daily for 2 weeks; type: functional, organism-based
Mus musculus [19] = assay: Anti-diabetic activity in high fat diet-fed C57BL/6J mouse model of obesity and diabetes assessed as reduction of white adipose tissue at 20 mg/kg, ip dosed daily for 2 weeks; type: functional, organism-based
Mus musculus [20] = assay: Anti-diabetic activity in high fat diet-fed C57BL/6J mouse model of obesity and diabetes assessed as reduction of white adipose tissue weight (epididymal adipose tissue ) at 20 mg/kg, ip dosed daily for 2 weeks; type: functional, organism-based
Mus musculus [21] = assay: Anti-diabetic activity in high fat diet-fed C57BL/6J mouse model of obesity and diabetes assessed as reduction of white adipose tissue weight (retroperitoneal adipose tissue ) at 20 mg/kg, ip dosed daily for 2 weeks; type: functional, organism-based
[22] = Hepato-toxicity in high fat diet-fed C57BL/6J mouse model of obesity and diabetes assessed as effect on ALT activity at 20 mg/kg, ip dosed daily for 2 weeks; type: organism-based; details: in vivo, 336 h
Mus musculus [23] = assay: Anti-diabetic activity in high fat diet-fed C57BL/6J mouse model of obesity and diabetes assessed as reduction in food intake at 20 mg/kg, ip dosed daily for 2 weeks; type: functional; design: scale not given: the % may be the effect or the level left
Mus musculus [24] = assay: Anti-diabetic activity in high fat diet-fed C57BL/6J mouse model of obesity and diabetes assessed as reduction in energy expenditure at 20 mg/kg, ip dosed daily for 2 weeks; type: functional, organism-based
Mus musculus [25] = assay: Anti-diabetic activity in high fat diet-fed C57BL/6J mouse model of obesity and diabetes assessed as reduction in respiratory exchange ratio at 20 mg/kg, ip dosed daily for 2 weeks; type: functional, organism-based
Mus musculus [26] = assay: Anti-diabetic activity in high fat diet-fed C57BL/6J mouse model of obesity and diabetes assessed as reduction in blood glucose at 20 mg/kg, ip dosed daily for 2 weeks; type: functional, organism-based
Mus musculus [27] = assay: Anti-diabetic activity in high fat diet-fed C57BL/6J mouse model of obesity and diabetes assessed as reduction in insulin levels at 20 mg/kg, ip dosed daily for 2 weeks; type: functional, organism-based
Mus musculus [28] = assay: Anti-diabetic activity in high fat diet-fed C57BL/6J mouse model of obesity and diabetes assessed as improvement in glucose tolerance at 20 mg/kg, ip dosed daily for 2 weeks; type: functional, organism-based
Mus musculus [29] = assay: Anti-diabetic activity in high fat diet-fed C57BL/6J mouse model of obesity and diabetes assessed as improvement in HOMA-IR levels at 20 mg/kg, ip dosed daily for 2 weeks; type: functional, organism-based
Mus musculus [30] = assay: Anti-diabetic activity in high fat diet-fed C57BL/6J mouse model of obesity and diabetes assessed as improvement in blood lipid profile by measuring decrease in free cholesterol at 20 mg/kg, ip dosed daily for 2 weeks; type: functional, organism-based
Mus musculus [31] = assay: Anti-diabetic activity in high fat diet-fed C57BL/6J mouse model of obesity and diabetes assessed as improvement in blood lipid profile by measuring decrease in CE level at 20 mg/kg, ip dosed daily for 2 weeks; type: functional, organism-based
Mus musculus [32] = assay: Anti-diabetic activity in high fat diet-fed C57BL/6J mouse model of obesity and diabetes assessed as improvement in blood lipid profile by measuring decrease in TG level at 20 mg/kg, ip dosed daily for 2 weeks; type: functional, organism-based
Mus musculus [33] = assay: Anti-diabetic activity in high fat diet-fed C57BL/6J mouse model of obesity and diabetes assessed as reduction in serum leptin level at 20 mg/kg, ip dosed daily for 2 weeks; type: functional, organism-based
Mus musculus [34] = assay: Anti-diabetic activity in high fat diet-fed C57BL/6J mouse model of obesity and diabetes assessed as reduction in body weight at 20 mg/kg, ip dosed daily for 8 days; type: functional, organism-based; details: time 8.0 day
Mus musculus [35] = assay: Anti-diabetic activity in high fat diet-fed C57BL/6J mouse model of obesity and diabetes assessed as reduction in food intake at 20 mg/kg, ip dosed daily for 8 days; type: functional, organism-based; details: time 8.0 day
Mus musculus [36] = assay: Effect on fecal energy content in high fat diet-fed C57BL/6J mouse model of obesity and diabetes at 20 mg/kg, ip dosed daily for 8 days; type: functional, organism-based; details: time 8.0 day
3T3-L1 [37] = assay: Effect on cytochrome B5 reductase 3 in mouse 3T3-L1 cells at 10 uM dosed during day 2 to 6 and followed by drug replacement every 48 hrs by LC-MS/MS analysis based proteomic analysis; type: functional; details: time 4.0 day
3T3-L1 [38] = assay: Effect on superoxide dismutase 1 in mouse 3T3-L1 cells at 10 uM dosed during day 2 to 6 and followed by drug replacement every 48 hrs by LC-MS/MS analysis based proteomic analysis; type: functional; details: time 4.0 day
3T3-L1 [39] = assay: Inhibition of lipid accumulation in mouse 3T3-L1 cells at 5 to 20 uM incubated for 6 days by Oil Red O staining based spectrometric assay; type: functional, cell-based; details: dose 5-20 µM, time 6.0 day

CC(C)c1cc(C(C)C)c(CC(=O)NS(=O)(=O)Oc2c(C(C)C)cccc2C(C)C)c(C(C)C)c1 [AVASIMIBE]
25%: Activity (Mus musculus [17])
inactive: Activity (Mus musculus [36]) | Activity (3T3-L1 [37]) | Activity (3T3-L1 [38])
50%: Activity (Mus musculus [23])
Non-Toxic: Activity [22]
active: inhibition (3T3-L1 [1]) Dose-dependent effect | inhibition (3T3-L1 [3]) | inhibition (3T3-L1 [4]) | inhibition (3T3-L1 [5]) | inhibition (3T3-L1 [6]) | inhibition (3T3-L1 [7]) | inhibition (3T3-L1 [8]) | inhibition (3T3-L1 [9]) | Activity (3T3-L1 [10]) | inhibition (3T3-L1 [11]) | inhibition (3T3-L1 [12]) | inhibition (3T3-L1 [13]) | inhibition (3T3-L1 [14]) | inhibition (3T3-L1 [15]) | inhibition [16] | Activity (Mus musculus [18]) | Activity (Mus musculus [19]) | Activity (Mus musculus [20]) | Activity (Mus musculus [21]) | Activity (Mus musculus [24]) | Activity (Mus musculus [25]) | Activity (Mus musculus [26]) | Activity (Mus musculus [27]) | Activity (Mus musculus [28]) | Activity (Mus musculus [29]) | Activity (Mus musculus [30]) | Activity (Mus musculus [31]) | Activity (Mus musculus [32]) | Activity (Mus musculus [33]) | Activity (Mus musculus [34]) | Activity (Mus musculus [35])
<=60%: inhibition (INH) (3T3-L1 [2])

CCCCCCCCCCC(C)(C)C(=O)Nc1c(OC)cc(OC)cc1OC
active: inhibition (3T3-L1 [39])
